Measurements from patent US20160090351A1, “INHIBITORS OF DEUBIQUITINATING PROTEASES” (BRANDEIS UNIVERSITY, priority 2013, published 2016).
Entries after “also recorded” stand apart in the source; their conditions may differ. One block for each molecule: values may come before it.

Columns and labels:
USP9x = target: T1, USP9x (Homo sapiens, UniProt Q93008); assay: HA-Ub-VS labeling in K562 cell lysates; format: biochemical; conditions: compound 40 minutes, then HA-Ub-VS (1.5 μM) 20 minutes
T1 construct: endogenous in cells; host or cells: K562 cell lysate
T1 sequence (Q93008 whole entry): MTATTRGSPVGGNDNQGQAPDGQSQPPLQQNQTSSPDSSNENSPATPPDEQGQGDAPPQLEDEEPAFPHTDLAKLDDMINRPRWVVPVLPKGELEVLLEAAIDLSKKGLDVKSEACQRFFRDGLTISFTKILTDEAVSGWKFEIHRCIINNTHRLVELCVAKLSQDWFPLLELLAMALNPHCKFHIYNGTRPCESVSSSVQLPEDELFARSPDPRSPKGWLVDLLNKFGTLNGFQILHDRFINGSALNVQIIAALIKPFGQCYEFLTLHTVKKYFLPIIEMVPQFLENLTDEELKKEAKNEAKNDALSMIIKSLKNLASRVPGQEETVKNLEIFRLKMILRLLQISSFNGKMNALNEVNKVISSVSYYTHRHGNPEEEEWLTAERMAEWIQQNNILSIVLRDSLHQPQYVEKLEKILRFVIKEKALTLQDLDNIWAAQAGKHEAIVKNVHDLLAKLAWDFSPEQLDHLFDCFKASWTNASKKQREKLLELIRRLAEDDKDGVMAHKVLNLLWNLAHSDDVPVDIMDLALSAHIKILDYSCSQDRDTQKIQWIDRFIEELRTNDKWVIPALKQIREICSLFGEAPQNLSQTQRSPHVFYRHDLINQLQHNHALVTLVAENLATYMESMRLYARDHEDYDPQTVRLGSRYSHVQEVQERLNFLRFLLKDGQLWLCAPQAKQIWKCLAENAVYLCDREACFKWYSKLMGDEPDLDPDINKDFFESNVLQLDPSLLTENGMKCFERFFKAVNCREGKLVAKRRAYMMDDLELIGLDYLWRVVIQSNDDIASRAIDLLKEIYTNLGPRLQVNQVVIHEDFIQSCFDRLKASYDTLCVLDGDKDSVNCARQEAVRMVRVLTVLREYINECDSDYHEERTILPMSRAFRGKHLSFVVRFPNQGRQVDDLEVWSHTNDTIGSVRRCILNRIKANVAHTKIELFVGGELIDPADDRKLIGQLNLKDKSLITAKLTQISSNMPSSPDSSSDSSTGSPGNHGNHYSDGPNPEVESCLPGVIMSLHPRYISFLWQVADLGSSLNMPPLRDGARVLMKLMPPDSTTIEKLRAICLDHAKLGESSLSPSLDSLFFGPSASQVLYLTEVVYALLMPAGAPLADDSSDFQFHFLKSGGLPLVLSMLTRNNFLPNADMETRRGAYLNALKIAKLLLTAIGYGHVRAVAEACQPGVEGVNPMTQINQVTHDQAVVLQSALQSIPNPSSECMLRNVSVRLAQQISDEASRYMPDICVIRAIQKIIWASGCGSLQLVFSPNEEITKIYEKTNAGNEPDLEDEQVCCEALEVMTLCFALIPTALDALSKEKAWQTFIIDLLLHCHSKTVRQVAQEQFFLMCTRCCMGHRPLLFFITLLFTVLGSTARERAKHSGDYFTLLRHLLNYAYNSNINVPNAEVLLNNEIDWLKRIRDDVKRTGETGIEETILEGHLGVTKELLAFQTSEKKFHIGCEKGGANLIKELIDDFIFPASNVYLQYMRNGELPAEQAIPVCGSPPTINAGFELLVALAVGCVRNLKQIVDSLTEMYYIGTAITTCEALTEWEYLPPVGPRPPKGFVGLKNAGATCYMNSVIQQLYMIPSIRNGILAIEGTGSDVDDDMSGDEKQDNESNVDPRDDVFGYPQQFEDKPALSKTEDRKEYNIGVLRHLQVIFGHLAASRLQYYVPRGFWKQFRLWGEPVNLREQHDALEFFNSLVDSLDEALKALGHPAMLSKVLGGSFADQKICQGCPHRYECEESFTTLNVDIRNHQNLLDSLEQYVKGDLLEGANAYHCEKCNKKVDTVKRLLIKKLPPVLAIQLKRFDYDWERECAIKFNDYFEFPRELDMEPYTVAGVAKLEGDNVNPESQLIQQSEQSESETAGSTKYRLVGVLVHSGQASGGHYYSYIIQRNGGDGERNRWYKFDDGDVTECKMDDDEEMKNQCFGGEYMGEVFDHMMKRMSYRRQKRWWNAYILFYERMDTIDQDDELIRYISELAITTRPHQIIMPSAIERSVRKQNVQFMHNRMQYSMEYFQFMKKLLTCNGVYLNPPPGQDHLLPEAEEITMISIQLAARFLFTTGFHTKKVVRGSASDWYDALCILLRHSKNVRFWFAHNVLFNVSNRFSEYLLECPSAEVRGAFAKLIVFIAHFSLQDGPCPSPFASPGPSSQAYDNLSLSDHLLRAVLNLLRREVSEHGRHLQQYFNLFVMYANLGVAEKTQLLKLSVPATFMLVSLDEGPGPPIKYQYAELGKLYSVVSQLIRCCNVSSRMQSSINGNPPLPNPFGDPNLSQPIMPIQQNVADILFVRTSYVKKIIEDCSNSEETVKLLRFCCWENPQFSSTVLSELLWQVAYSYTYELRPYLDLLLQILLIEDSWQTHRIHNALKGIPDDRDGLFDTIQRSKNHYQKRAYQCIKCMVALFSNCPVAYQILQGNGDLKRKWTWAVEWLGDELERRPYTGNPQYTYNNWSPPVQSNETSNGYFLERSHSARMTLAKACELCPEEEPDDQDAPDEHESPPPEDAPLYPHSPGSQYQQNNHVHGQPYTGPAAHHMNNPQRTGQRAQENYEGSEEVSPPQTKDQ
Protocol: HA-Ub-VS is commonly used to label DUBs in cell lysates. […] A. and B. K562 cell lysates were treated with compound for 40 minutes prior to activity labeling with HA-Ub-VS (1.5 μM) for 20 minutes. Samples were analyzed by SDS-PAGE and immunoblotting with anti-HA antibody. C. […] Values were derived by fitting to the in Prism.

20S proteasome = 20S proteasome (Homo sapiens, UniProt P28074); assay: proteasome activity (purified 20S proteasome; GFP-Ub (G76V) in Cos-1 cells); format: biochemical; conditions: 20S proteasome 30 minutes, Suc-Leu-Tyr-AMC 100 μM; Cos-1 GFP-Ub (G76V) 8 hours
Protocol: A. Purified 20S proteasome was treated with compound for 30 minutes prior to addition of substrate (Suc-Leu-Tyr-AMC, 100 μM). B. Cos-1 cells expressing with GFP-Ub (G76V) were treated with compound for 8 hours, then the level of GFP was measured by flow cytometry.

K562 cells = assay: apoptosis, cell cycle and viability of K562 cells by flow cytometry; format: cell-based, human; conditions: annexin V-FITC / propidium iodide, 24 hours (TU50 also 8 hours)
Protocol: (§1) K562 cells are from a myelogenous leukemia line that expresses Bcr-Abl kinase. A. K562 cells were treated with TU50 for 24 hours after which time the cells were treated with annexin V-FITC and propidium iodide. Cells were then analyzed by flow cytometry. Cells showing only annexin V-FITC were considered apoptotic whereas cells showing both annexin V-FITC and propidium iodide were considered necrotic. N=2. All points show a significant difference to the vehicle (DMSO) with p<0.05. […] All points show a significant difference to vehicle (DMSO) with p<0.02. C. Same as A, but the incubation period was 8 hours. N>2. All points show a significant difference to DMSO with p<0.02. D, K562 cells were treated with TU50 for 4 hours. Samples were analyzed by SDS-PAGE and immunoblotting with anti-Bcr-Abl antibody. E. Quantitation of blot in D. The signal for tubulin was used to normalize the Bcr-Abl signal. N=3.
(§2) FIG. 40 depicts data showing that diphenyl carbonates induce the degradation of Bcr-Abl kinase. A. K562 cells were treated with C17 for 24 h (1 dose) then analyzed for Bcr-Abl expression by western blot with anti-Abl antibody. B. Quantitation of blots in A normalized to actin. C. K562 cells were treated with C17 for 24 h then the amount of cells in G1 and apoptosis were recorded (N=3). D. K562 were treated with C15 for 4 h then analyzed for Bcr-Abl expression using western blot. E. Quantitation of Bcr-Abl from D normalized to tubulin (N=4). F. Same K562 lysates were separately analyzed for K63-linked ubiquitin. G. Quantitation of blots in F (N=4). Differences between all bars is significant p<0.01). H. K562 cells were treated with C15 for 24 h after which time cells were fixed in ethanol, treated with propodium iodide/RNAse then analyzed by FACS. Viability was calculated using forward and side scatter. I. Same experiment as H but red fluorescence was measured to determine DNA content

Bcr-Abl kinase = assay: Bcr-Abl levels in K562 cells by immunoblotting; format: cell-based, human; conditions: TU50 4 hours
Protocol: as §1
FIG. 34 depicts data showing that diphenylcarbonates cause the accumulation of HMW-Ub and reduce the levels of Bcr-Abl in K562 cells. A. K562 cells were treated with diphenyl carbonates (50 μM) for 2 h and then assayed for the accumulation of K48-linked Ub. B. As in A, but Bcr-Abl was measured by immunoblotting with anti-Abl antibodies. C. K562 cells were treated with C17 (50 μM) in the presence and absence of bortezomib (6 μM) for 4 hours and Bcr-Abl was measured by immunblotting with anti-Abl antibodies. D. Quantitation of blot in C. Significance: DMSO relative to C17 and bortezomib p=0.002; DMSO relative to C17, p=0.03. E. K562 cells were treated with C15 for 4 hours then analyzed for SMAD4 monoubiquitination by western blot. F. Quantitation of blots in A. (N=3). See also FIG. 40.
as §2
Transfected cells were harvested 1.5 days post transfection. […] Typically clarified lysate was analyzed.

B16/F10 cells = assay: proliferation and cell cycle of B16/F10 cells; format: cell-based, mouse; conditions: 72 h, flow cytometry
Protocol: A. MCF7 cells were treated with C17 for 4 h and Mdm2 levels were measured. B. As in A, P53 measured. C. As in A, P21 measured. D. MCF7 and B16/F10 cells were treated with C17 every 24 hours. After 72 hours, the number of viable cells was measured by Alamar Blue®.
MCF7 cells were dosed every 2 hours with the indicated concentration of C15. After 6 hours, cells were lysed by freeze thaw and then sonicated in 0.5% SDS. A. Total lysates were blotted for K48-linked ubiquitin and actin. B. Normalized K48-linked ubiquitin signal was plotted as a function of concentration of C15 (N=2). C. […] Doxorubicin (Dox) is a DNA damaging agent that serves as a positive control for the induction of P53. D. Quantitation of P53 levels in C relative to actin (N=2). […] MCF7 cells were treated under the stated conditions then analyzed for cell cycle. F. DMSO treated cells. G. Cells treated with C17 (25 μM), dosed every 24 hours. H. Cells treated with C17 (50 μM), dosed every 24 hours. […] These cells were left for 72 h (single dose) after which time the total number of viable cells was analyzed using Alamar Blue®. All data are n≧4 showing mean+/−s.e.m. K. MCF7 cells were plated with C17 for 24 hours after which time the total number of viable cells was measured by Alamar Blue®. L. B16/F10 cells were treated with DMSO, C17 or P005091 for 72 h. […] After this time, cells were analyzed by flow cytometry.
All cells were grown at 37° C. in a 5% CO2 humidified atmosphere in DMEM supplemented with 10% heat inactivated FBS, 1× glutamax, and 1× penicillin/streptomycin. […] Typically clarified lysate was analyzed. […] Lysates were centrifuged (20 000 rpm, microcentrifuge, Eppendorf 5417 C) concentration was measured, then 0.1% SDS was added and lysates were sonicated for a total of 30 s (in 10 s bursts). Protein concentration was determined using Bradford assay with IgG as standard and analyzed by western blot as delineated below {[9 μg total protein for K48-linked ubiquitin (1:9000 antibody dilution), SMAD4 (1:500) or PARP (1:1000)]; [30-40 μg was loaded for K63-linked ubiquitin (1:1500), Mdm2 (1:1000) or Abl (1:1500). […]

cathepsin C = cathepsin C (Homo sapiens, UniProt P53634); assay: cathepsin C inhibition; format: biochemical; conditions: compounds numbered as in FIG. 5
Chain of cathepsin C (P53634 25-463, species assumed): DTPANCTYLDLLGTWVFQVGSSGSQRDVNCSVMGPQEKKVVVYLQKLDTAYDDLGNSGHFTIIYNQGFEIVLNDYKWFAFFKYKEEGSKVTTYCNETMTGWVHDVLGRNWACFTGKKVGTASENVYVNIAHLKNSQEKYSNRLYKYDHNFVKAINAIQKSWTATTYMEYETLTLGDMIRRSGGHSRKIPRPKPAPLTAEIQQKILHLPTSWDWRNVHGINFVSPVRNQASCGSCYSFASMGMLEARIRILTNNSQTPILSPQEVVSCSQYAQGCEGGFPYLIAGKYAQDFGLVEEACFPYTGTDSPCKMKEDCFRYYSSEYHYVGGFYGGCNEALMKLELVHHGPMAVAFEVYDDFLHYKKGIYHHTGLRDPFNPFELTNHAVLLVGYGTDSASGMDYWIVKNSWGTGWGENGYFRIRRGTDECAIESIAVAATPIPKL

[1] = system: ubiquitin-proteasome system; assay: GFP-G76V-Ub assay in HEK 293T cells; format: cell-based, human; conditions: diphenyl carbonates 100 μM, bortezomib 20 μM, G5 2 μM
Protocol: FIG. 32 depicts data showing that diphenyl carbonates inhibit DUBs in HEK 293T cells. A. Viability of HEK 293T cells assessed by the propidium iodide exclusion method: diphenyl carbonate (100 μM), bortezomib (V, 20 μM) and G5 (2 μM). N≧3, mean+/−s.d. B. HEK 293T cells were treated with the stated compounds (50 μM) for 2 h and then assayed for the accumulation of K48-linked Ub species. C. As in A, but K63-linked Ub was assayed. D. HEK 293T cells were treated with C14, C15, C17, C18 (100 μM) or DMSO for 2 hours, then harvested, lysed and treated with HA-Ub-VS. After 30 min, lysates were analyzed by SDS-PAGE and probed for HA, tubulin and actin. An intervening lane was removed for clarity. E. HEK 293T cells expressing Ub-G76V-GFP were treated with diphenyl carbonates (100 μM), bortezomib (20 μM) and G5 (2 μM). […] N>3, Mean+/−s.d. See also FIG. 39.
FACS was carried out on a […] FACS-Calibur. For HEK 293T and K562, cells were resuspended by repeated pipetting/agitation of the incubation media, followed by dilution into PBS. For Cos-1, MCF-7, and CHO cells, media was removed and trypsin was added. Harvested cells were placed in FACS buffer (0.5% FBS in PBS with 3 μg/mL propidium iodide) 30 s prior to analysis. All data were analyzed using FlowJo V10, from TreeStar (Ashland, Oreg.). Approximately 2500 cells were sorted per replicate. Cells were sorted by propidium iodide dye exclusion to give a “viable population”. GFP positive cells within this group were identified relative to untransfected controls. Then the geometric mean of the whole GFP positive population within the viable population was calculated. Typical transfection efficiencies for G76V ubiquitin were 60-70% for both Cos-1 and HEK 293T and 25-40% for CHO cells, based on GFP positive cells.
The activity of the diphenylcarbonates in the GFP-G76V-Ub assay, which monitors flux through the ubiquitin-proteasome system, was also investigated. The G76V mutation creates an unstable Ub fusion protein that is degraded in a proteasome dependent process. GFP fluorescence increased when HEK 293T cells expressing GFP-G76V-Ub were treated with the proteasome inhibitor bortezomib and decreased upon treatment with G5 (FIG. 39). This decrease has been attributed to increased flux through the ubiquitin-proteasome system triggered by the accumulation of HMW-Ub. […] Perhaps the inability of the diphenylcarbonates to inhibit UCH-L1/3 accounts for the stability of GFP-G76V-Ub. This selectivity might also explain the low cytoxicity of these compounds relative to G5.

DUBs = assay: decomposition of high molecular weight ubiquitinated proteins (HMW-Ub) in lysates of HEK 293T cells expressing HA-Ub; format: biochemical, human; conditions: HEK 293T HA-Ub lysates, 37° C.
Protocol: FIG. 30 depicts data showing that diphenylcarbonates inhibit the decomposition of high molecular weight ubiquitinated proteins (HMW-Ub). Lysates were prepared from HEK 293T cells expressing HA-ubiquitin. Samples were incubated at 37° C. and reactions were quenched by the addition of reducing Laemmli buffer. HMW-Ub was assessed by SDS-PAGE and immunoblotting with anti-HA antibody. A. Representative immunoblots measuring the decomposition of HMW-Ub in lysates treated with either the DMSO vehicle, G5 (10 μM) or C4 (500 μM). B. Plot of the decomposition of HMW-Ub in lysates treated with DMSO and C4 (500 μM) (N=2; error bars denote range). C. Inhibition of HMW-Ub decomposition by diphenylcarbonates. Lysates were treated with diphenylcarbonates (50 μM). “-” denotes no treatment; D, 1% DMSO vehicle; IU1, an USP14-specific inhibitor; Bort, bortezomib, a proteasome inhibitor. D. Representative decomposition of HMW-Ub after 2 h incubation in the presence of varying concentrations of C4. See also FIG. 36. E. Quantitation of D. The values of EC50 reported in FIG. 29B are the average and S.E.M. of at least 3 independent experiments. See also FIG. 37 and FIG. 38.
Cells overexpressing HA-ubiquitin were prepared as above. Pellets were typically stored at −80° C. until required, at which time they were thawed on ice. Cell lysis was performed in lysis buffer using a Dounce homogenizer (10 strokes, with grinding, on ice: typical yield approx. 2-5 mg protein per transfected T75 flask for HEK 293T cells; 1-3 mg protein from a T75 flask for Cos-1). Crude lysate was centrifuged at 17000 g for 10 min at 4° C., after which time the concentration of the lysate was normalized to 1 mg/mL. The lysate was aliquoted into PCR strip tubes (typical volumes 75-50 μL) and compound in DMSO was added to this to give a final concentration of DMSO of 1%. Tubes were briefly centrifuged, overlaid with Chill-out wax (50 μL) and placed in a PCR machine at 37° C. with heated lid set to 37° C. Aliquots (9 μL) were removed at the stated times and immediately quenched in (2× final concentration) reducing (dithiothreitol) loading buffer and frozen (−19° C.) till required. Western blot analysis was carried out using standard methods. Samples were resolved by SDS-PAGE, transferred to PVDF [(0.45 μm) (Towbin buffer, tank apparatus, 90 V 1 hour, then overnight at 30 V, 4° C.)] then blocked in 15% milk in TBS-T HS (100 mM Tris HCl, pH 7.6, 500 mM NaCl, 0.5% […]) for at least 2 hours at RT. Afterward, membrane was washed in TBS-T HS then probed with anti HA-HRP (1:18000) for 1.33 hours at RT. Membrane was washed 3 times in TBS-T HS (15 mins) then once in TBS (15 mins) and exposed to ECL II and visualized using blue biofilm. […] When required, membranes were stripped in 100 mM glycine pH 4, 500 mM NaCl, 1% SDS, 5 mM BME, at 55° C. for 19 mins, then analyzed.
Lysates were prepared from HEK 293T cells expressing N-terminally HA-tagged ubiquitin (HA-Ub) to facilitate the observation of ubiquitinated proteins. In the absence of a DUB inhibitor, the HMW-Ub pool decomposed with a half-life of 34 min (FIG. 30A,B). […] Similar results were obtained in lysates prepared from Cos-1 cells expressing HA-Ub.

[2] = system: G76V ubiquitin-GFP fusion protein; assay: G76V ubiquitin-GFP fusion protein fluorescence, Example 5; format: cell-based; conditions: Example 5, FIG. 9 bottom panel
Protocol: Cells treated with 4 (100 μM; as defined in FIG. 3) show PARP cleavage that indicates caspases are active. The fluorescence of G76V ubiquitin-GFP fusion protein increases in the presence of inhibitor 4 (as defined in FIG. 3), as expected if degradation […] due to inhibition of DUBs. In contrast, GFP fluorescence […] when the proteasome is inhibited by bortezomib.

desumoylation = assay: stabilization of SUMOylated proteins in lysates from HA-SUMO transfected HEK 293T cells; format: biochemical, human; conditions: G5 5 μM, C4 300 μM
Protocol: Untransfected HEK 293T cell lysates were treated with the vehicle alone (DMSO at 1%) or compound and incubated at 37° C. for 2 h. Samples were analyzed by SDS-PAGE and immunoblotting with antibody recognizing K48-linked ubiquitin. D=DMSO; G5=G5 isopeptidase inhibitor 1. A-D show titrations of different compounds (see FIG. 29B for structures). E-H Lysates were prepared from HEK 293T cells expressing HA-SUMO and treated with vehicle alone (DMSO, 1%) or compound. Samples were incubated for the appropriate time and analyzed by SDS-PAGE and immunoblotting with anti-HA antibody. Representative experiments are shown. E. Vehicle control. F. G5, 5 μM; G. C4, 300 μM. H. Quantification of blots as in E-G, N=2 average and range. I-J. Lysates were prepared from HEK 293T cells expressing HA-Ub and treated with either vehicle alone (1% DMSO) or compound at 37° C. for 3 h. Samples were analyzed by SDS-PAGE and immunoblotting with anti-HA antibody. I. A representative experiment. J. Quantitation of experiments in I (N=2 average and range shown). […]
Similar effects were observed when the endogenous K48-linked ubiquitin pool was monitored in lysates prepared from wild-type HEK 293T cells (FIG. 37A-D). Unfortunately, K63-linked ubiquitin could not be detected in these lysates. The ability of C4 to stabilize SUMOylated proteins in lysates from HA-SUMO transfected HEK 293T cells was also assessed.

EC50 (USP9x): 11 ± 4 µM | effect on proteasome activity (20S proteasome): no effect on proteasome activity
Structure (SMILES): CC(C)(C)OC(=O)NCCc1ccc(N=C=S)cc1 [TU46]

effect on proteasome activity (20S proteasome): no effect on proteasome activity
Structure (SMILES): O=C(NCc1ccc(N=C=S)cc1)OCc1ccccc1 [TU49]
apoptosis of K562 cells (K562 cells): induce apoptosis of K562 cells | Bcr-Abl kinase level (Bcr-Abl kinase): cause degradation of Bcr-Abl kinase

Structure (SMILES): CC(=O)c1cc([N+](=O)[O-])c(Sc2cccc(Cl)c2Cl)s1 [Compound P005091, reference compound]
cell cycle distribution (B16/F10 cells): decrease in cells in G1 phase and an increase in G2

Structure (SMILES): NCc1ccc(OC(=O)Oc2ccc(Cl)cc2)cc1 [compound 3]
inhibition of cathepsin C (cathepsin C): does not

Structure (SMILES): CC(C)C[C@H](NC(=O)[C@H](Cc1ccccc1)NC(=O)c1cnccn1)B(O)O [bortezomib, reference compound]
GFP fluorescence [1]: Only bortezomib treatment caused an increase in GFP fluorescence; also recorded: increased | stabilization of the HMW-Ub pool (DUBs): failed to stabilize the HMW-Ub pools | GFP fluorescence of G76V ubiquitin-GFP [2]: decreases

Structure (SMILES): NCc1ccc(OC(=O)Oc2ccccc2)cc1 [Compound C4, 4-(aminomethyl)phenyl(phenyl)carbonate]
inhibition of desumoylation (desumoylation): Neither G5 nor C4 inhibited desumoylation | stabilization of the HMW-Ub pool (DUBs): prevented decomposition of the HMW-Ub pool
